What was measured:
Format in all cases: biochemical
human thrombin = biological target: T1, human thrombin (Homo sapiens, UniProt P00734); assay: Inhibition of amidase activity of thrombin (chromogenic substrate), Kass; settings: substrate N-benzoyl-Phe-Val-Arg-p-nitroanilide, pH 7.4
T1 construct: purified human thrombin Enzyme Research Laboratories, South Bend, Ind; purchased Enzyme Research Laboratories, South Bend, Ind
Protocol: (§1) The assay is carried out by mixing 50 μl buffer (0.03M Tris, 0.15M NaCl, pH 7.4), 25 μl of human thrombin solution (purified human thrombin Enzyme Research Laboratories, South Bend, Ind.) at 8 NIH units/ml and 25 μl of test compound in a solvent (50% aqueous methanol (v:v)). Then 150 μl of an aqueous solution of the chromogenic substrate (at 0.25 mg/ml) are added and the rates of hydrolysis of the substrate are measured by monitoring the reactions at 405 nm for the release of p-nitroaniline. Standard curves are constructed by plotting free thrombin concentration against hydrolysis rate. The hydrolysis rates observed with test compounds are then converted to "free thrombin" values in the respective assays by use of the standard curves. The bound thrombin (bound to test compound) is calculated by subtracting the amount of free thrombin observed in each assay from the known initial amount of thrombin used in the assay. The amount of free inhibitor in each assay is calculated by subtracting the number of moles of bound thrombin from the number of moles of added inhibitor (test compound).
The Kass value is the hypothetical equilibrium constant for the reaction between thrombin and the test compound (I). [drawing 53]
(§2) Kass is calculated for a range of concentrations of test compounds and the mean value is reported in units of liter per mole.

Bovine trypsin = biological target: T2, Bovine trypsin (Bos taurus, UniProt P00760); assay: Serine protease inhibition, trypsin (chromogenic substrate), Kass; settings: substrate N-Benzoyl-Phe-Val-Arg-p-nitroanilide
T2 construct: Bovine trypsin is purchased from Worthington Biochemicals, Freehold, N.J; purchased Worthington Biochemicals, Freehold, N.J
T2 sequence (P00760 24-246): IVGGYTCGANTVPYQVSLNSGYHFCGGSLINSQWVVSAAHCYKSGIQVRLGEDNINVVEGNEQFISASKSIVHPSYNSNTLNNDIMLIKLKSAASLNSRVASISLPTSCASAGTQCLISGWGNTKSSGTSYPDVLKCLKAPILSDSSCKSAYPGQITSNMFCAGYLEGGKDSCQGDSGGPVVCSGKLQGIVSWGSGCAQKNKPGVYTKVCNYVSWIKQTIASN
Protocol: as §1, §2
(§3) By substantially following the procedures described above for human thrombin, and using other human blood coagulation system serine proteases, and using fibrinolytic system serine proteases, with the appropriate chromogenic substrate, identified below, selectivity of the compounds of the present invention with respect to the coagulation factor serine proteases and to the fibrinolytic serine proteases are evaluated as well as their substantial lack of interference with human plasma clot fibrinolysis.
(§4) Human factors X, Xa, IXa, XIa, and xIIa are purchased from Enzyme Research Laboratories, South Bend, Ind.; human urokinase from Leo Pharmaceuticals, Denmark; and recombinant activated Protein C (aPC) is prepared at Eli Lilly and Co. substantially according to U.S. Pat. No. 4,981,952 incorporated by reference herein in its entirety. Chromogenic substrates: N-Benzoyl-Ile-Glu-Gly-Arg-p-nitroanilide (for factor Xa); N-Cbz-D-Arg-Gly-Arg-p-nitroanilide (for factor IXa assay as the factor Xa substrate) pyroglutamyl-Pro-Arg-p-nitroanilide (for factor XIa and for aPC); H-D-Pro-Phe-Arg-p-nitroanilide (for factor XIIa); and pyroglutamyl-Gly-Arg-p-nitroanilide (for urokinase); are purchased from KabiVitrum, Stockholm, Sweden, or from Midwest Biotech, Fishers, Indiana. Bovine trypsin is purchased from Worthington Biochemicals, Freehold, N.J., and human plasma kallikrein from Kabi Vitrum, Stockholm, Sweden. N-Benzoyl-Phe-Val-Arg-p-nitroanilide, the substrate for human thrombin and for trypsin, is synthesized according to procedures described above for the compounds of the present invention, known methods of peptide coupling from commercially available reactants, or was purchased from Midwest Biotech, Fishers, Ind. Human plasmin is purchased from Boehringer Mannheim, Indianapolis, Ind.; nt-PA is purchased as single chain activity reference from American Diagnostics, Greenwich, Conn.; modified-t-PA6 (mt-PA6) is prepared at Eli Lilly and Company by procedure known in the art (See, Burck, et al., J. Biol. Chem., 265, […] (1990). Plasmin chromogenic substrate H-D-Val-Leu-Lys-p-nitroanilide and tissue plasminegen activator (t-PA) substrate H-D-Ile-Pro-Arg-p-nitroanilide are purchased from Kabi Vitrum, Stockholm, Sweden.

Human Plasma [1] = assay: Anticoagulation in human plasma, thrombin time (TT); settings: concentration required to double the thrombin time
Protocol: (§5) Dog plasma and rat plasma are obtained from conscious mixed-breed hounds (either sex, Hazelton-LRE, Kalamazoo, Mich., U.S.A.) or from anesthetized male Sprague-Dawley rats (Harlan Sprague-Dawley, Inc., Indianapolis, Ind., U.S.A.) by venipuncture into 3.8 percent citrate. Fibrinogen is prepared from in-date ACD human blood as the fraction I-2 according to previous procedures and specifications. Smith, Biochem. Chem. […] Human fibrinogen is also purchased as 98 percent pure/plasmin free from American Diagnostics, Greenwich, Conn. Coagulation reagents ACTIN, Thromboplastin, and Human plasma are from Baxter Healthcare Corp., Dade Division, Miami, Fla. Bovine thrombin from Parke-Davis (Ann Arbor, Mich.) is used for coagulation assays in plasma. Coagulation assay procedures are as previously described. Smith, et al., Thrombosis Research, 5, 163-174 (1988). A CoAScreener coagulation instrument (American LABor, Inc.) is used for all coagulation assay measurements. The prothrombin time (PT) is measured by adding 0.05 ml saline and 0.05 ml Thromboplastin-C reagent to 0.05 ml test plasma. The activated partial thromboplastin time (APTT) is measured by incubation of 0.05 ml test plasma with 0.05 ml Actin reagent for 120 seconds followed by 0.05 ml CaCl2 (0.02M). […] The compounds of formula I are added to human or animal plasma over a wide range of concentrations to determine prolongation effects on the APTT, PT, and TT assays. Linear extrapolations are performed to estimate the concentrations required to double the clotting time for each assay.

Human plasmin = biological target: T3, Human plasmin (Homo sapiens, UniProt P00747); assay: Serine protease inhibition, plasmin (chromogenic substrate), Kass; settings: substrate H-D-Val-Leu-Lys-p-nitroanilide
T3 construct: Human plasmin is purchased from Boehringer Mannheim, Indianapolis, Ind; purchased Boehringer Mannheim, Indianapolis, Ind
T3 sequence (P00747 581-810 limits assumed): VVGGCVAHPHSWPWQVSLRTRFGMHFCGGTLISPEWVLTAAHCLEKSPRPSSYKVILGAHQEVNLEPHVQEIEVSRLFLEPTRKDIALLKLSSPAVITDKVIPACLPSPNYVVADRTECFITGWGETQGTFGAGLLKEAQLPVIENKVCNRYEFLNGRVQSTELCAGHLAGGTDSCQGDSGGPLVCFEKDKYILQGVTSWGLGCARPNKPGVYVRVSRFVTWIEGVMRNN
T3 sequence (P00747 97-580 partner limits assumed): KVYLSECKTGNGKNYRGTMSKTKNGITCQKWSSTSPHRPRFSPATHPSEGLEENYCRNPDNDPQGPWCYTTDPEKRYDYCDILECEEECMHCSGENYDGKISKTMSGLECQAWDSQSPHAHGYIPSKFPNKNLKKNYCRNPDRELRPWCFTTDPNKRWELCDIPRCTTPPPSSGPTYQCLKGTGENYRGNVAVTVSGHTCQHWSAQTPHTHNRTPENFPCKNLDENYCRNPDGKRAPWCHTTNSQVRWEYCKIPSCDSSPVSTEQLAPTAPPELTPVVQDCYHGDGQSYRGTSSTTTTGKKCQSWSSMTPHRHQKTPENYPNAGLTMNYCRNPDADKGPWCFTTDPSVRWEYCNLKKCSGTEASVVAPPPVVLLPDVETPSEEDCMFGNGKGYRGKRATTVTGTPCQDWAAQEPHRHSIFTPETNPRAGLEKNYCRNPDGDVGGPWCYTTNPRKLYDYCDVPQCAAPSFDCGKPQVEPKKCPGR
Protocol: as §1, §2, §3, §4

Human Plasma [2] = assay: Anticoagulation in human plasma, prothrombin time (PT); settings: concentration required to double the PT
Protocol: as §5

Human Plasma [3] = assay: Anticoagulation in human plasma, activated partial thromboplastin time (APTT); settings: concentration required to double the APTT
Protocol: as §5

factor Xa = biological target: T4, factor Xa (Homo sapiens, UniProt P00742); assay: Serine protease inhibition, factor Xa (chromogenic substrate), Kass; settings: substrate N-Benzoyl-Ile-Glu-Gly-Arg-p-nitroanilide
T4 construct: Human factors X, Xa, IXa, XIa, and xIIa are purchased from Enzyme Research Laboratories; purchased Enzyme Research Laboratories, South Bend, Ind
T4 sequence (P00742 235-488 limits assumed): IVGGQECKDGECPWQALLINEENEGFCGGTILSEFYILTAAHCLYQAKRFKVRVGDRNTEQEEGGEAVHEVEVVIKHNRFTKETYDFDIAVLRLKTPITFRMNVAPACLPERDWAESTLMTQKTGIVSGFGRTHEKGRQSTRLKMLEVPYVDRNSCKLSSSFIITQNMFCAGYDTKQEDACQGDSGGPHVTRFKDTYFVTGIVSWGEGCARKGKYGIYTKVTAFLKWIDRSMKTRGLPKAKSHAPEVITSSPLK
T4 sequence (P00742 41-179 partner limits assumed): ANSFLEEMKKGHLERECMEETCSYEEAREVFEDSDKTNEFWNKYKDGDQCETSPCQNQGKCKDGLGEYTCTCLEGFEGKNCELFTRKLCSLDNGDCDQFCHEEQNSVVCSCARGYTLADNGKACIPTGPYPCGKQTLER
Protocol: as §1, §2, §3, §4

[4] = biological target: T5, tissue plasminogen activator (t-PA) (Homo sapiens, UniProt P00750); assay: Serine protease inhibition, t-PA (chromogenic substrate), Kass; settings: substrate H-D-Ile-Pro-Arg-p-nitroanilide
T5 construct: purchased American Diagnostics, Greenwich, Conn
T5 sequence (P00750 36-562): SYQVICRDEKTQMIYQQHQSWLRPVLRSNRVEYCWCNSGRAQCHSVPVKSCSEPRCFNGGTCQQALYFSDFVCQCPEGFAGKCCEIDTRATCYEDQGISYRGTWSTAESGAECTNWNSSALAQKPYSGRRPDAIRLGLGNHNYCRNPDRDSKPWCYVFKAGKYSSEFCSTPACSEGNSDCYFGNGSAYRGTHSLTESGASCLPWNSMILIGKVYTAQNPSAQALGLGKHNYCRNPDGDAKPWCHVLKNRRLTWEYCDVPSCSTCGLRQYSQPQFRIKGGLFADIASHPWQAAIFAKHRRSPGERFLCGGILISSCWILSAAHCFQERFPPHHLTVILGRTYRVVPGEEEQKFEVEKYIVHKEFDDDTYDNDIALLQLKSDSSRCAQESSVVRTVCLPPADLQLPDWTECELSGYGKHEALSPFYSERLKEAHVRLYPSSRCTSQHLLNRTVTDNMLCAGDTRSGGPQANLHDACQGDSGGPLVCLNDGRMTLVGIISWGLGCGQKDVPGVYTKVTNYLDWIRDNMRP
Protocol: as §1, §2, §3, §4

Cl.N=C(N)NCCC[C@@H](C=O)NC(=O)[C@@H]1CCCN1C(=O)[C@@H](Cc1ccccc1)NS(=O)(=O)c1nccs1 [Example 19, 2-Thiazolyl-SO2 -D-Phe-Pro-Arg-H-HCl]
Enzyme Kass, Human Thrombin (human thrombin): 68 L/mol × 10^6 | Enzyme Kass, Trypsin (Bovine trypsin): 52 L/mol × 10^6 | 2 × Clotting time, TT (Human Plasma [1]): 66 ng/mL | Enzyme Kass, Plasmin (Human plasmin): 3.4 L/mol × 10^6 | 2 × Clotting time, PT (Human Plasma [2]): 2,900 ng/ML | 2 × Clotting time, APTT (Human Plasma [3]): 810 ng/mL | Enzyme Kass, Xa (factor Xa): 2.8 L/mol × 10^6 | Enzyme Kass, t-Pa [4]: 0.31 L/mol × 10^6

CCS(=O)(=O)N[C@@H](C(=O)N1CCC[C@H]1C(=O)N[C@H](C=O)CCCNC(=N)N)c1ccccc1.Cl [Example 20, EtSO2 -D-Phg-Pro-Arg-H.HCl]
Enzyme Kass, Human Thrombin (human thrombin): 510 L/mol × 10^6 | Enzyme Kass, Trypsin (Bovine trypsin): 160 L/mol × 10^6 | 2 × Clotting time, TT (Human Plasma [1]): 34 ng/mL | Enzyme Kass, Plasmin (Human plasmin): 14 L/mol × 10^6 | 2 × Clotting time, PT (Human Plasma [2]): 880 ng/mL | 2 × Clotting time, APTT (Human Plasma [3]): 250 ng/mL | Enzyme Kass, Xa (factor Xa): 45 L/mol × 10^6 | Enzyme Kass, t-Pa [4]: 0.34 L/mol × 10^6

CCS(=O)(=O)N[C@@H](C(=O)N1CCC[C@H]1C(=O)N[C@H](C=O)CCCNC(=N)N)C1CCCCC1.Cl [Example 22, EtSO2 -D-Chg-Pro-Arg-H.HCl]
Enzyme Kass, Human Thrombin (human thrombin): 260 L/mol × 10^6 | Enzyme Kass, Trypsin (Bovine trypsin): 260 L/mol × 10^6 | 2 × Clotting time, TT (Human Plasma [1]): 46 ng/mL | Enzyme Kass, Plasmin (Human plasmin): 13 L/mol × 10^6 | 2 × Clotting time, PT (Human Plasma [2]): 1,100 ng/ML | 2 × Clotting time, APTT (Human Plasma [3]): 330 ng/mL | Enzyme Kass, Xa (factor Xa): 24 L/mol × 10^6 | Enzyme Kass, t-Pa [4]: 0.11 L/mol × 10^6

CC(=O)N[C@H](Cc1ccccc1)C(=O)N1CCC[C@H]1C(=O)N[C@H](C=O)CCCN=C(N)N.Cl [Example 23, Ac-D-Phe-Pro-Arg-H.HCl]
Enzyme Kass, Human Thrombin (human thrombin): 3.4 L/mol × 10^6 | Enzyme Kass, Trypsin (Bovine trypsin): 14 L/mol × 10^6 | 2 × Clotting time, TT (Human Plasma [1]): 140 ng/mL | Enzyme Kass, Plasmin (Human plasmin): 0.28 L/mol × 10^6 | 2 × Clotting time, PT (Human Plasma [2]): 4,100 ng/ML | 2 × Clotting time, APTT (Human Plasma [3]): 2,700 ng/ML | Enzyme Kass, Xa (factor Xa): 0.066 L/mol × 10^6 | Enzyme Kass, t-Pa [4]: 0.11 L/mol × 10^6

COCC(=O)N[C@H](Cc1ccccc1)C(=O)N1CCC[C@H]1C(=O)N[C@H](C=O)CCCNC(=N)N.Cl [Example 24, CH3 OCH2 CO-D-Phe-Pro-Arg-H.HCl]
Enzyme Kass, Human Thrombin (human thrombin): 33 L/mol × 10^6 | Enzyme Kass, Trypsin (Bovine trypsin): 57 L/mol × 10^6 | 2 × Clotting time, TT (Human Plasma [1]): 38 ng/mL | Enzyme Kass, Plasmin (Human plasmin): 3.8 L/mol × 10^6 | 2 × Clotting time, PT (Human Plasma [2]): 1,200 ng/ML | 2 × Clotting time, APTT (Human Plasma [3]): 440 ng/mL | Enzyme Kass, Xa (factor Xa): 0.29 L/mol × 10^6 | Enzyme Kass, t-Pa [4]: 0.30 L/mol × 10^6

Cl.N=C(N)NCCC[C@@H](C=O)NC(=O)[C@@H]1CCCN1C(=O)[C@@H](Cc1ccccc1)NC(=O)C(F)(F)F [Example 25, CF3 CO-D-Phe-Pro-Arg-H.HCl]
Enzyme Kass, Human Thrombin (human thrombin): 26 L/mol × 10^6 | Enzyme Kass, Trypsin (Bovine trypsin): 15 L/mol × 10^6 | 2 × Clotting time, TT (Human Plasma [1]): 59 ng/mL | Enzyme Kass, Plasmin (Human plasmin): 0.31 L/mol × 10^6 | 2 × Clotting time, PT (Human Plasma [2]): 1,800 ng/ML | 2 × Clotting time, APTT (Human Plasma [3]): 1,300 ng/ML | Enzyme Kass, Xa (factor Xa): 0.033 L/mol × 10^6 | Enzyme Kass, t-Pa [4]: 0.17 L/mol × 10^6

Cl.N=C(N)NCCC[C@@H](C=O)NC(=O)[C@@H]1CCCN1C(=O)[C@@H](Cc1ccccc1)NC(=O)Cc1ccccc1 [Example 26, PhCH2 CO-D-Phe-Pro-Arg-H.HCl]
Enzyme Kass, Human Thrombin (human thrombin): 29 L/mol × 10^6 | Enzyme Kass, Trypsin (Bovine trypsin): 14 L/mol × 10^6 | 2 × Clotting time, TT (Human Plasma [1]): 64 ng/mL | Enzyme Kass, Plasmin (Human plasmin): 0.54 L/mol × 10^6 | 2 × Clotting time, PT (Human Plasma [2]): 2,000 ng/ML | 2 × Clotting time, APTT (Human Plasma [3]): 1,100 ng/ML | Enzyme Kass, Xa (factor Xa): 0.10 L/mol × 10^6 | Enzyme Kass, t-Pa [4]: 0.37 L/mol × 10^6

Cl.N=C(N)NCCC[C@@H](C=O)NC(=O)[C@@H]1CCCN1C(=O)[C@@H](Cc1ccccc1)NC(=O)C1CCCCC1 [Example 27, cyclohexyl-CO-D-Phe-Pro-Arg-H.HCl]
Enzyme Kass, Human Thrombin (human thrombin): 20 L/mol × 10^6 | Enzyme Kass, Trypsin (Bovine trypsin): 5.9 L/mol × 10^6 | 2 × Clotting time, TT (Human Plasma [1]): 63 ng/mL | Enzyme Kass, Plasmin (Human plasmin): 0.24 L/mol × 10^6 | 2 × Clotting time, PT (Human Plasma [2]): 1,800 ng/ML | 2 × Clotting time, APTT (Human Plasma [3]): 1,300 ng/ML | Enzyme Kass, Xa (factor Xa): 0.064 L/mol × 10^6 | Enzyme Kass, t-Pa [4]: 0.26 L/mol × 10^6

Reference: patent publication US5602101A, “Antithrombotic agents” (priority 1994, dated 1997)
